The values below come from patent US20030105014A1, “Screening assay for the identification of inhibitors of macrophage migration inhibitory factor” (priority 1996, published 2003).

Series [1] has as its target T1, MIF (Homo sapiens, UniProt P14174).
T1 construct: made in house; host or cells: E. coli BL21(DE3), pET11b (inferred from Section 6; the Section 8 text says only 'recombinant')
T1 sequence (P14174 2-115 limits assumed): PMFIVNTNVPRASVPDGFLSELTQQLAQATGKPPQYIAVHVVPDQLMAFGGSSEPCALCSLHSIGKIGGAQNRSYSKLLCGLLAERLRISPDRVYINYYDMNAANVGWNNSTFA
The series can be described thus: MIF dopachrome tautomerase activity assay with Compound 1b as MIF-substrate. It counts as biochemical. The settings on record: test compound used in place of the MIF-substrate. An excerpt: The general method of performing an assay for MIF dopachrome tautomerase activity, described in more detail below, begins with the oxidation of a percursor of the MIF-substrate (e.g., DOPA-related Compound 1a [L-3-(3,4-dihydroxyphenyl) alanine methyl ester] above) and, if required, the similar oxidation of precursors of the test inhibitors (e.g., the DOPA-related Compounds 2a [L-3-(3,4-dihydroxyphenyl)-2-methyl alanine], 3a [D/L-3-(3,4-dihydroxyphenyl)-2-methyl alanine], 4a [L-3-(3,4-dihydroxyphenyl)-2-methyl alanine methyl ester] and 5a [D/L-3-(3,4-dihydroxyphenyl)-2 methyl alanine methyl ester] above). This oxidation of each precursor compound with sodium periodate generates the corresponding orange-colored dopachrome derivative; specifically, a preferred MIF-substrate (Compound 1B above) and the test inhibitors (Compounds 2b, 3b, 4b, and 5b above). Upon addition of MIF, the MIF-substrate (Compound 1b [L-3,5-dihydro-6-hydroxy-5-oxo-2H-indole-2-carboxylic acid methyl ester]) undergoes tautomerization resulting in a colorless product. In the presence of the test inhibitors (Compounds 2b, 3b, 4b, and 5b), decolorization of MIF-substrate (Compound 1b) was retarded. Test compounds 2b, 3b, 4b, and 5b themselves were unreactive in this tautomerization reaction; that is, they were not tautomerized and correspondingly decolorized by MIF dopachrome tautomerase activity if they were substituted for the MIF-substrate in this assay method.
In a preferred MIF dopachrome tautomerase activity assay procedure, the DOPA-related precursors (Compounds 1a, 2a, 3a, 4a, and 5a above) are prepared as 10 mM stock solutions in Assay Buffer (10 mM sodium phosphate, pH 6.0). About 10 minutes before the tautomerization assay, 1.0 ml of each stock solution was diluted with 8 ml of Assay Buffer, and 1.0 ml of sodium periodate stock solution (20 mM in water) was added to initiate the oxidation of the diluted precursors, thus generating each respective dopachrome derivative (i.e., Compounds 1b, 2b, 3b, 4b, and 5b) at a final concentration of 1 mM. To perform the actual tautomerization assay, 0.5 ml of the 1 mM solution of the MIF-substrate (i.e., Compound 1b) was mixed with 0.5 ml of Assay Buffer (no inhibitor control reaction) or 0.5 ml of the 1 mM dilution of the test inhibitor (e.g., Compounds 2b, 3b, 4b, or 5b), followed by addition of 10 μl of recombinant […] solution from a 20 μg/ml stock.

Series [2] concerns the target recombinant human MIF (Homo sapiens, UniProt P14174). The series can be described thus: biochemical. The following applies: read-out: % Inhibition of MIF tautomerase activity.
Series [3] relates to RAW 264.7 macrophages. As to the kind of experiment: MIF-induced nitric oxide production in macrophages (Griess reagent). It counts as cell-based, murine. The settings on record: 1 μg/ml, IFN-γ-primed RAW 264.7 macrophages. The method, then: Nitric oxide (NO) production was quantitated in MIF-conditioned RAW 264.7 and thioglycollate-elicited peritoneal exudate macrophage supernatants by measuring nitrite and nitrate content with the Griess reagent. RAW 264.7 macrophages were prepared and conditioned as described above. In some experiments, cells were incubated for 1 h with recombinant murine interferon-γ (IFN-γ) (100 IU/ml) (Boehringer-Mannheim, Indianapolis, Ind.) prior to the addition of MIF. Thioglycollate-elicited peritoneal exudate macrophages were obtained from BALB/c mice that were injected intra-peritoneally 3-4 days previously with 2 ml of sterile thioglycollate broth. Cells were harvested under strict aseptic conditions by lavage of the peritoneal cavity with 5 ml of an ice-chilled 11.6% sucrose solution. After centrifugation (10 min at 800 g), cells were resuspended in RPMI/10% FBS and plated at a density of 2×10^6 cells/ml. After 3 h of incubation, non-adherent cells (i.e. PMNs, lymphocytes) were removed with RPMI/1% FBS and the remaining adherent cells conditioned with MIF as described for RAW 264.7 cells. Trace concentrations of contaminating LPS were neutralized by incubating MIF (1 and 10 μg/ml in cell culture media) with polymyxin B at a concentration of 10 and 100 ng/ml, respectively, for 30 min at room temperature under sterile conditions. […]

The test system of series [4] is RAW 264.7 macrophages. As to the kind of experiment: MIF-induced secretion of TNFα by mouse macrophages (L929 cell cytotoxicity readout). It counts as cell-based, murine. The method, then:
TNFα production was quantitated in MIF-conditioned RAW 264.7 macrophage supernatants by L929 cell cytotoxicity as described previously (Wolpe et al., 1988, J. Exp. Med. 167: 570). RAW 264.7 macrophages were resuspended in RPMI/10% FBS, plated at 1×10^6 cells/ml, incubated for 3 hours at 37° C. in a humidified atmosphere with 5% CO2, and washed twice with RPMI/1% FBS. Cells were incubated for 12-14 hours with various doses of MIF diluted in RPMI/1% FBS. At the end of each experiment, cell culture media were collected, centrifuged (10 min at 800 g), and supplemented with 1 mM PMSF. MIF-induced TNFα activity was measured immediately afterwards.

Series [5] can be described thus: Tautomerase activity of altered or glycated MIF proteins. Type of series: biochemical. The method, then:
A 1 mM solution of L-DOPA methyl ester was prepared in Reaction Buffer (10 mM sodium phosphate, pH 6, containing 0.5 mM EDTA). L-DOPA methyl ester was oxidized to colored L-dipachrome methyl ester by adding 10% (v/v) of a 20 mM aqueous solution of potassium periodate, following a 1:2 dilution with Reaction Buffer.
The test compound, reduced glutathione, was added in concentrations of 0.1 mM, 0.5 mM, 1.0 mM, and 2.0 mM to separate cuvettes containing the substrate solution. Approximately 100 ng of purified recombinant human MIF was added to each cuvette. […]
Purified recombinantly-produced human MIF protein was glycated by incubation in aqueous buffer in the presence of 0.5 M glucose, typically for 6 weeks in the dark at 37° C. under a nitrogen atmosphere to ensure complete glycation of susceptible residues (although other spontaneous glycation conditions will serve to glycate the protein without departing from the essence of the invention) and tested for D-dopachrome tautomerase activity by the method of Section 7 or Section 8. […] The AGE-MIF was recovered and analyzed by matrix-assisted laser desorption ionization mass spectroscopy and determined to have a mass consistent with three-fold Amadori product modification of the protein; that is, there was a mass excess of approximately 3×162 (the mass excess of a single Amadori product). […]

Consider `CC1(C(=O)O)CC2=CC(=O)C(O)=CC2=N1` [Compound 2b, L-3,5-dihydro-6-hydroxy-2-methyl-5-oxo-2H-indole-2-carboxylic acid], for which the “Tautomerization by MIF when substituted for the MIF-substrate” value (shortened to “Tautomerization by MIF when substituted”) in series [1] is recorded as “unreactive”.
Take `CC1(C(=O)O)CC2=CC(=O)C(O)=CC2=N1` [Compound 3b, D/L-3,5-dihydro-6-hydroxy-2-methyl-5-oxo-2H-indole-2-carboxylic acid]: the “Tautomerization by MIF when substituted” value in series [1] was “unreactive”.
Same read-out and setting: the same measure for `COC(=O)C1(C)CC2=CC(=O)C(O)=CC2=N1` [Compound 4b, L-3,5-dihydro-6-hydroxy-2-methyl-5-oxo-2H-indole-2-carboxylic acid methyl ester]: “unreactive”.
With `COC(=O)C1(C)CC2=CC(=O)C(O)=CC2=N1` [Compound 5b, D/L-3,5-dihydro-6-hydroxy-2-methyl-5-oxo-2H-indole-2-carboxylic acid methyl ester], the “Tautomerization by MIF when substituted” value in series [1] is “unreactive”.
With `N[C@@H](CCC(=O)N[C@@H](CS)C(=O)NCC(=O)O)C(=O)O` [Glutathione, glutathione], in series [2], the inhibition at 100 µM came to 14%, the inhibition at 500 µM was found to be 69%, the inhibition at 1000 µM came to 95% and the inhibition at 2000 µM came out at 100%.

B1: rhuMIF: recombinant human MIF expressed in E. coli from pET11b, native amino-terminus (protein, UniProt P14174 2-115, looked up)
Macrophage migration …: T1 sequence (P14174 2-115 limits assumed)
Take B1: the “NO production activity relative to rmuMIF” value in series [3] is listed as “approximately 4 fold”. Further, the “Secretion of TNFα induced by MIF” value in series [4] (MIF 0.1 μg/ml) came out at 2.9 ± 2.4 ng/mL; in series [4] (MIF 1 μg/ml), 3.4 ± 2.8 ng/mL; in series [4] (MIF 10 μg/ml), 3.9 ± 2.8 ng/mL. Besides, the “MIF tautomerase activity of expressed protein” value in series [5] (protein expressed in E. coli) is reported as “highly active”.

B2: AGE-MIF: recombinant human MIF glycated by incubation with 0.5 M glucose; three-fold Amadori product modification (protein, UniProt P14174 2-115, looked up)
Macrophage migration …: T1 sequence (P14174 2-115 limits assumed)
modifications: advanced glycation end-product modified
Regarding B2, in series [5] (human MIF incubated with 0.5 M glucose, typically 6 weeks at 37° C., method of Section 7 or Section 8), the “D-dopachrome tautomerase activity of glycated MIF” value is listed as “no D-dopachrome tautomerase activity”.

What is called inhibition is the relative decrease from the control value, in per cent.
